Assay results: publication PMC6557688 (FEBS letters, 2019)

Biological target: recombinant Nudt7 (Mus musculus, UniProt Q99P30)
Test: CoA diphosphohydrolase assay, protein curves
Type: biochemical
Settings: MgCl2 or MnCl2

Sequence of recombinant Nudt7 (Q99P30 whole entry): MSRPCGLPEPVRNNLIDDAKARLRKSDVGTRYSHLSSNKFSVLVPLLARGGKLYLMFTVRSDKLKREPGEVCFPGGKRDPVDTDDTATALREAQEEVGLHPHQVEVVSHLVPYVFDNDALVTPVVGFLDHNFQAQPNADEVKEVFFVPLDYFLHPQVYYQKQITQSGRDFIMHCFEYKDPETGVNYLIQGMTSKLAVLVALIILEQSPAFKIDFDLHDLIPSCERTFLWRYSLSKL

CC(C)(COP(=O)(O)OP(=O)(O)OC[C@H]1O[C@@H](n2cnc3c(N)ncnc32)[C@H](O)[C@@H]1OP(=O)(O)O)[C@@H](O)C(=O)NCCC(=O)NCCS [Free CoA]
CoA diphosphohydrolase assay, protein curves: the specific activity of Nudt8 against free CoA was comparable to that of Nudt7
